From patent publication US20250381254A1, “Augmented Acid Alpha-Glucosidase For The Treatment Of Pompe Disease” (Amicus Therapeutics, Inc., priority 2015, published 2025)
Like-named read-outs stand apart in the source and are kept apart here.

How the values were obtained:
[1] = Clinical study: plasma miglustat PK; assay type: in vivo, human; details: for AUC0-∞/BW (geometric mean) / CL/F (arithmetic mean) / Cmax/BW (geometric mean) / βt1/2 (arithmetic mean) / AUC(0-t) / AUC(0-inf) / Cmax / Vd/F / Tmax: with 20 mg/kg ATB200; for AUC(0-t) / AUC(0-inf) / Cmax / Vd/F / Tmax: human, plasma, 20 mg/kg; for AUC(0-t): read-out: AUC0-t (geometric mean); for AUC(0-inf): read-out: AUC0-∞ (geometric mean); for Cmax: read-out: Cmax (geometric mean); for Vd/F: read-out: Vz/F (arithmetic mean); for Tmax: read-out: tmax (median)
From the text: The study will be conducted in 2 stages.
• Safety: review of AEs, including SAEs and IARs; review of concomitant medications and nondrug therapies; vital signs (HR, RR, BP, and temperature); weight; PE; ECG; clinical safety laboratory assessments (serum chemistry, hematology, and urinalysis); and urine pregnancy test • PD: urinary Hex4 and serum CPK • Immunological: blood samples for anti-recombinant acid α-glucosidase antibody titers (anti-recombinant acid α-glucosidase total and neutralizing antibody titers, and antibody cross-reactivity with alglucosidase alfa) and blood samples for measurement of pro-inflammatory cytokines and other biomarkers of immune system activation. If needed, IgE measurements will also be performed. • Serial 24-hour PK: During Period 4 (Visit 6, Day 43 and Visit 8, Day 71) and Period 5 (Visit 9, Day 85 and Visit 11, Day 113), blood sampling for plasma acid α-glucosidase activity levels, total acid α-glucosidase protein concentrations, and miglustat concentrations will be taken for all subjects.
In Tables 12-15 and FIGS. 24-26, the single dose (SD) measurements were taken after a single administration of miglustat and ATB200, and the multiple dose (MD) measurements were taken after the third biweekly administration of miglustat and ATB200.

[2] = molecular target: ATB200 (Homo sapiens, UniProt P10253, H199R/R223H/V780I); experiment: Unfolding of ATB200 protein vs. temperature with and without miglustat (FIG. 1); assay type: physicochemical; details: various pH
From the text: Without being bound by theory, it is believed that miglustat acts as a pharmacological chaperone for the recombinant human acid α-glucosidase ATB200 and binds to its active site. […] However, the binding of miglustat to the active site of ATB200 also can result in inhibition of the enzymatic activity of ATB200 by preventing the natural substrate, glycogen, from accessing the active site.

[3] = Previous studies in non-human primates (exposure); details: in vivo, po, 175 mg/kg
[4] = 130 mg miglustat, multiple dose
[5] = oral, 130 mg miglustat, multiple dose
[6] = oral, 130 mg miglustat, single dose
[7] = oral, 260 mg miglustat, single dose

CCCCN1C[C@H](O)[C@@H](O)[C@H](O)[C@H]1CO [miglustat, (2R,3R,4R,5S)-1-butyl-2-(hydroxymethyl)piperidine-3,4,5-triol]
dose proportionality of kinetics ([1]; 130 mg and 260 mg): dose-proportional kinetics | AUC0-∞/BW (geometric mean) [1, 4]: 142 ng·h/mL/kg | CL/F (arithmetic mean) [1, 4]: 10.8 L/h | Cmax/BW (geometric mean) [1, 4]: 16.3 ng/mL/kg | βt1/2 (arithmetic mean) [1, 4]: 5.6 h | AUC0-∞/BW (geometric mean) ([1]; 130 mg miglustat, single dose): 154 ng·h/mL/kg | CL/F (arithmetic mean) ([1]; 130 mg miglustat, single dose): 9.93 L/h | Cmax/BW (geometric mean) ([1]; 130 mg miglustat, single dose): 19.2 ng/mL/kg | βt1/2 (arithmetic mean) ([1]; 130 mg miglustat, single dose): 4.5 h | AUC0-∞/BW (geometric mean) ([1]; 260 mg miglustat, single dose): 325 ng·h/mL/kg | CL/F (arithmetic mean) ([1]; 260 mg miglustat, single dose): 9.51 L/h | Cmax/BW (geometric mean) ([1]; 260 mg miglustat, single dose): 41.5 ng/mL/kg | βt1/2 (arithmetic mean) ([1]; 260 mg miglustat, single dose): 5.5 h | AUC(0-t) [1, 5]: 11500 ng·h/mL | AUC(0-inf) [1, 5]: 12200 ng·h/mL | Cmax [1, 5]: 1390 ng/mL | Vd/F [1, 5]: 88.1 L | Tmax [1, 5]: 3 h | AUC(0-t) [1, 6]: 12600 ng·h/mL | AUC(0-inf) [1, 6]: 13200 ng·h/mL | Cmax [1, 6]: 1650 ng/mL | Vd/F [1, 6]: 65.4 L | Tmax [1, 6]: 2.75 h | AUC(0-t) [1, 7]: 26600 ng·h/mL | AUC(0-inf) [1, 7]: 28000 ng·h/mL | Cmax [1, 7]: 3550 ng/mL | Vd/F [1, 7]: 79.2 L | Tmax [1, 7]: 2.75 h | time of peak plasma concentrations into the ATB200 infusion ([1]; oral, 1 hour prior to ATB200 infusion): 2 h | percentage of unfolded ATB200 protein [2]: decrease the percentage of unfolded ATB200 protein | AUC [3]: 196000 ng·h/mL
